Measurements reported in PubChem BioAssay AID1963985 (Molecular Pharmacology Branch, DTP, NCI, 2024).

Test system: 252836-082-R-J2-PDC tumor spheroids, viability
Assay: Anticancer human tumor 252836-082-R-J2-PDC patient-derived head and neck squamous cell carcinoma cell line growth inhibition [PI3K]
Conditions: spheroids with HUVEC and MSC; for IC50: curve of first compound; for viability, T/C: stronger effect = lower value
How it was run: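 Targeted small molecules plus PI3K inhibitors, half-log dose series from Cmax (default top 10 microM), were applied to heterotypic spheroids of cancer cells with HUVEC and MSCs. Viability indicated growth inhibition.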

[1] = second compound 0.00316 µM, first compound 0.0316 µM
[2] = second compound 0.00316 µM, first compound 0.1 µM
[3] = second compound 0.00316 µM, first compound 0.316 µM
[4] = second compound 0.00316 µM, first compound 1 µM
[5] = second compound 0.00316 µM, first compound 3.16 µM
[6] = second compound 0.00316 µM, first compound 10 µM
[7] = second compound 0.01 µM, first compound 0.0316 µM
[8] = second compound 0.01 µM, first compound 0.1 µM
[9] = second compound 0.01 µM, first compound 0.316 µM
[10] = second compound 0.01 µM, first compound 1 µM
[11] = second compound 0.01 µM, first compound 3.16 µM
[12] = second compound 0.01 µM, first compound 10 µM
[13] = second compound 0.0316 µM, first compound 0.0316 µM
[14] = second compound 0.0316 µM, first compound 0.1 µM
[15] = second compound 0.0316 µM, first compound 0.316 µM
[16] = second compound 0.0316 µM, first compound 1 µM
[17] = second compound 0.0316 µM, first compound 3.16 µM
[18] = second compound 0.0316 µM, first compound 10 µM
[19] = second compound 0.1 µM, first compound 0.0316 µM
[20] = second compound 0.1 µM, first compound 0.1 µM
[21] = second compound 0.1 µM, first compound 0.316 µM
[22] = second compound 0.1 µM, first compound 1 µM
[23] = second compound 0.1 µM, first compound 3.16 µM
[24] = second compound 0.1 µM, first compound 10 µM
[25] = second compound 0.316 µM, first compound 0.0316 µM
[26] = second compound 0.316 µM, first compound 0.1 µM
[27] = second compound 0.316 µM, first compound 0.316 µM
[28] = second compound 0.316 µM, first compound 1 µM
[29] = second compound 0.316 µM, first compound 3.16 µM
[30] = second compound 0.316 µM, first compound 10 µM
[31] = second compound 1 µM, first compound 0.0316 µM
[32] = second compound 1 µM, first compound 0.1 µM
[33] = second compound 1 µM, first compound 0.316 µM
[34] = second compound 1 µM, first compound 1 µM
[35] = second compound 1 µM, first compound 3.16 µM
[36] = second compound 1 µM, first compound 10 µM
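Note: spheroids exposed to agents for seven days before readout.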
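Throughout, for viability, T/C: percent of vehicle DMSO control viability so 100% = untreated growth.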

C[C@@H](NC(=O)c1ncnc(N)c1Cl)c1ncc(C(=O)Nc2cc(C(F)(F)F)c(Cl)cn2)s1 + CC(Nc1ccc2c(c1)OCCn1cc(N3C(=O)OCC3C(F)F)nc1-2)C(N)=O
IC50 (second compound 0.00316 µM): > 10000 nM
IC50 (second compound 0.01 µM): > 10000 nM
IC50 (second compound 0.0316 µM): > 10000 nM
IC50 (second compound 0.1 µM): > 10000 nM
IC50 (second compound 0.316 µM): 4550 nM
IC50 (second compound 1 µM): < 31.6 nM
viability, T/C [1]: 96.4%
viability, T/C [2]: 76.1%
viability, T/C [3]: 90.9%
viability, T/C [4]: 90.8%
viability, T/C [5]: 77.8%
viability, T/C [6]: 77.9%
viability, T/C [7]: 98.9%
viability, T/C [8]: 91.3%
viability, T/C [9]: 85.5%
viability, T/C [10]: 100%
viability, T/C [11]: 87.4%
viability, T/C [12]: 80.2%
viability, T/C [13]: 84.5%
viability, T/C [14]: 80.5%
viability, T/C [15]: 81.5%
viability, T/C [16]: 88.4%
viability, T/C [17]: 73.8%
viability, T/C [18]: 64%
viability, T/C [19]: 59.6%
viability, T/C [20]: 66.3%
viability, T/C [21]: 61.8%
viability, T/C [22]: 77.5%
viability, T/C [23]: 60.5%
viability, T/C [24]: 58.4%
viability, T/C [25]: 62.9%
viability, T/C [26]: 50.2%
viability, T/C [27]: 53.9%
viability, T/C [28]: 60.4%
viability, T/C [29]: 55.1%
viability, T/C [30]: 42.2%
viability, T/C [31]: 42.1%
viability, T/C [32]: 44.4%
viability, T/C [33]: 46.2%
viability, T/C [34]: 38.2%
viability, T/C [35]: 43.3%
viability, T/C [36]: 32.9%

CC1(C)CCC(Nc2ncc(C(F)(F)F)c(-c3c[nH]c4c(P(C)(C)=O)c(C#N)ccc34)n2)CN1 (centres undefined) + CC(Nc1ccc2c(c1)OCCn1cc(N3C(=O)OCC3C(F)F)nc1-2)C(N)=O
IC50 (second compound 0.00316 µM): < 31.6 nM
IC50 (second compound 0.01 µM): < 31.6 nM
IC50 (second compound 0.0316 µM): < 31.6 nM
IC50 (second compound 0.1 µM): < 31.6 nM
IC50 (second compound 0.316 µM): < 31.6 nM
IC50 (second compound 1 µM): < 31.6 nM
viability, T/C [1]: 27.2%
viability, T/C [2]: 24.2%
viability, T/C [3]: 29.6%
viability, T/C [4]: 24.5%
viability, T/C [5]: 26.2%
viability, T/C [6]: 5.32%
viability, T/C [7]: 27.5%
viability, T/C [8]: 27.6%
viability, T/C [9]: 25.7%
viability, T/C [10]: 25.6%
viability, T/C [11]: 23.5%
viability, T/C [12]: 4.5%
viability, T/C [13]: 26.8%
viability, T/C [14]: 29.1%
viability, T/C [15]: 22.2%
viability, T/C [16]: 23.8%
viability, T/C [17]: 27.3%
viability, T/C [18]: 4.59%
viability, T/C [19]: 24.1%
viability, T/C [20]: 20.6%
viability, T/C [21]: 22.1%
viability, T/C [22]: 24.8%
viability, T/C [23]: 22.9%
viability, T/C [24]: 3.21%
viability, T/C [25]: 20.6%
viability, T/C [26]: 21%
viability, T/C [27]: 21.1%
viability, T/C [28]: 19.5%
viability, T/C [29]: 20.2%
viability, T/C [30]: 3.5%
viability, T/C [31]: 18.4%
viability, T/C [32]: 19.3%
viability, T/C [33]: 16.6%
viability, T/C [34]: 19.6%
viability, T/C [35]: 18.2%
viability, T/C [36]: 2.31%
